One series concerns the target T1, Kv1.5 (Homo sapiens, UniProt P22460).
T1 construct: expressed in transfected cells; host or cells: HEK or LTK- cells
As to the kind of experiment: Kv1.5 Patch Clamp EP. In kind it is cell-based. The following applies: 1.0 μM, single point; whole cell patch clamp, Kv1.5 stably over expressed in HEK or LTK- cells. How it is done: The external solution is standard Tyrodes solution. […] Inhibition was measured at the end of the 1 second pulses and expressed relative to controls. Initial Kv1.5 inhibition is estimated by single point determinations done at 1 μM.

For a further series, the system named is L-type calcium channels. In words: FLIPR L-Type Calcium Channel Assay. In kind it is cell-based, murine. The following applies: HL-1 cells expressing endogenous L-type calcium channels; calcium influx after 20 mM KCl; read-out: L-type Ca^2+ IC50. In a few lines: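 After a 15 min compound pre-incubation at 37 °C with 2.5 mM probenecid, L-type channels were opened by depolarising with 20 mM KCl (final). Fluorescence (488 nm excitation, 510–570 nm emission) was read for 5 min.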

In series [1] the target is T2, HERG (Homo sapiens, UniProt Q12809).
Protocol: (§1) HERG currents are recorded by the whole cell mode of patch clamp electrophysiology as described by Hamill et al.^3 HERG is stably over expressed in HEK cells. Microelectrodes are pulled from borosilicate glass (TW150) and heat polished (tip resistance, 1.5 to 3 megaohms). The external solution is standard Tyrodes solution. The internal (microelectrode) solution contained: 110 mM KCl, 5 mM K2ATP, 5 mM K4BAPTA, 1 mM MgCl2 and 10 mM HEPES, adjusted to pH 7.2 with KOH. […] Compounds are prepared as 10-20 mM DMSO stocks and diluted to appropriate test concentrations. […] Inhibition of HERG is measured at the peak of the tail currents and expressed relative to controls. Initial HERG activity is estimated by single point determinations run at 10 μM. Concentration response curves are generated for appropriate compounds utilizing at least four concentrations and an n=3. Curve fitting and IC50 estimating are done using Graphpad software (Ver. 4). • 1.
For series [2], the target named is T2, HERG. In words: HERG Patch Clamp EP. The following applies: human, HEK cells stably overexpressing HERG.
Protocol: as §1

T1 sequence (P22460 whole entry): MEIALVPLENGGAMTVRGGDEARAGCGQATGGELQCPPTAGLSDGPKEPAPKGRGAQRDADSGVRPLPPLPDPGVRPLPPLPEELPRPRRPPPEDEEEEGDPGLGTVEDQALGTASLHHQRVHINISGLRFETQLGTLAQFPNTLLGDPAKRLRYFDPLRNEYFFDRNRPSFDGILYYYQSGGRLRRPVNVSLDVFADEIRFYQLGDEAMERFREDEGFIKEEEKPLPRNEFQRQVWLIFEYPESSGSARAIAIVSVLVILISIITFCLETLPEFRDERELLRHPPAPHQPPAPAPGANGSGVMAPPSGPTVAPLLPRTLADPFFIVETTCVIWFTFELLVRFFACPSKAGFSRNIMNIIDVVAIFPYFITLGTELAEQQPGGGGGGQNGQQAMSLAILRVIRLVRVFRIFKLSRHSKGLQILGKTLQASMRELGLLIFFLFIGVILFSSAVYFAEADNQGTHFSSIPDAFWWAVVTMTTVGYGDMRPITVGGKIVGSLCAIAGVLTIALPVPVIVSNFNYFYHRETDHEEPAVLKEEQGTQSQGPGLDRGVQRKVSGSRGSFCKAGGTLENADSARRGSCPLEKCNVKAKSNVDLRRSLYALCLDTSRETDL
T2 sequence (Q12809 whole entry): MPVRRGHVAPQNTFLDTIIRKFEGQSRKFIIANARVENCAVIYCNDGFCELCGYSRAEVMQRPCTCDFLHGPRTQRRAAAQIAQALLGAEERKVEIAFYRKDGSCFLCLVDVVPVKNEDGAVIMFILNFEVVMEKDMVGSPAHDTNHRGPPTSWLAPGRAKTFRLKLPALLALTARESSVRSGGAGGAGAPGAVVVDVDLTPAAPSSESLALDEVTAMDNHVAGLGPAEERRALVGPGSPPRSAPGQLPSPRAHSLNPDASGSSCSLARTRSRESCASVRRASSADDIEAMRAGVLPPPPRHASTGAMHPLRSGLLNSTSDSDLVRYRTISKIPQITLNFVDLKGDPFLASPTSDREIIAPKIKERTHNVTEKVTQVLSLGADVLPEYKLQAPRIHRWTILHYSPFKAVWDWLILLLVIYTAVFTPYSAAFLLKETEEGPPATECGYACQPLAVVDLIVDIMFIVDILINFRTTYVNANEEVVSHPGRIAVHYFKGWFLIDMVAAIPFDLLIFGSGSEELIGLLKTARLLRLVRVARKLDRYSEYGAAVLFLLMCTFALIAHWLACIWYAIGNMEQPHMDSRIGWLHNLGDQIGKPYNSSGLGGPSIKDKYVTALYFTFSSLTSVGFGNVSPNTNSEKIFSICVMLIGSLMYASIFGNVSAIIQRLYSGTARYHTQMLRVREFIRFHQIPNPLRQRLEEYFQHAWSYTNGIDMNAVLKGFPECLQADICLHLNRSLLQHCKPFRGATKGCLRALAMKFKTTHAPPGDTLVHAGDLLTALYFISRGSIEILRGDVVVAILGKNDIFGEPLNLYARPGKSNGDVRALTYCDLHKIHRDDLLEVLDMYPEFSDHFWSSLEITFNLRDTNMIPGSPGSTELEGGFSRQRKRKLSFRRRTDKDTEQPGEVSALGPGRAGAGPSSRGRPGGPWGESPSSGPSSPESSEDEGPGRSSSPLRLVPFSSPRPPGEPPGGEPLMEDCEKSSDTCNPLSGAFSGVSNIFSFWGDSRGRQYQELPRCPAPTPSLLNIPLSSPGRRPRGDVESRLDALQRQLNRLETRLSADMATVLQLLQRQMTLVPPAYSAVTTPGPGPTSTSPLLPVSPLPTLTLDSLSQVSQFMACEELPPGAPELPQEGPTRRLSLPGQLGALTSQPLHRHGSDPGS

Regarding “1-(Methoxycarbonylamino)-3-[2-(4-methoxyphenyl)ethyl]-4-[4-(tert-butyl)phenyl]-2-imidazolidinone [Compound 80]”, the “Kv1.5% inhibition @ 1.0 μM” value on Kv1.5 came to 77%. Besides, the IC50 in the series on L-type calcium channels turned out to be 20 µM. For the same compound, the “HERG % Inhib. @ 10 μM” value on HERG [1] is 51%.

On Kv1.5, `COc1ccc(CCN2C(=O)N(NS(=O)(=O)CF)CC2c2ccc(C3CC3)cc2)cc1` (stereo not drawn) [Compound 34, 1-(Fluoromethylsulfonylamino)-3-[2-(4-methoxyphenyl)ethyl]-4-(4-cyclopropyl-phenyl)-2-imidazolidinone] came in with an inhibition at 1 µM of 98%. The IC50 in the series on L-type calcium channels stood at 18 µM. The same compound returned an inhibition at 10 µM against HERG [2] of 38%.
